# Experimental data reported in US9439432B2, “Phenylisoxazoline-based compound having herbicidal activity and use thereof” (MOGHU RESEARCH CENTER LTD, priority 2011, dated 2016).
# Tested on: Corn
# Test: Pre-emergence treatment, phytotoxicity to corn
# Format: in vivo
# Settings: 500 g/ha, 4 weeks after spraying, scale 0 to 10 (0: no effects, 10: complete death)
# Experimental: (§1) A rectangular plastic pot having a surface area of 300 cm^2 was filled with sandy loam soil and mixed bed soil which were mixed at a ratio of 1:1, and then, barnyardrass (Echinochloa crusgalli), large crabgrass (Digitaria sanguinalis), blackgrass (Alopecurus myosuroides), and annual bluegrass (Poa annua), which are grass weeds, were seeded thereto. In a pot that was prepared as described above, seeds of corn, soybean, cotton, wheat, and rice were seeded. The pots were irrigated, and one day after, chemicals were sprayed thereto. The spraying was performed by using a track sprayer (R&D Sprayer, USA) equipped with a Teejet 8002 (Spraying Systems Co., USA) nozzle, and a spraying amount was adjusted at 300 L/ha. A spraying solution was prepared by dissolving test materials or references in acetone and adding the same amount of 0.2%(v/v) tween 20 aqueous solution thereto. Application rates were 500, 250, 125, and 62.5 g/ha. The pots were placed in a greenhouse in which during day, the temperature was maintained at a temperature of 25 to 30° C., and during night, the temperature was maintained at a temperature of 15 to 25° C., and the pots were periodically irrigated. Four weeks after the spraying the test materials or References, effects and phytotoxicity of the respective weeds and crops were evaluated in a scale of 0 to 10 (0: no effects, 10: complete death), and results thereof are shown in Table 4 below.
row,SMILES,"Phytotoxicity, Corn"
1,"CC1(COCc2c(F)cccc2F)CC(c2ccccc2Cl)=NO1 (stereo not drawn) [Compound 2, 3-(2-chlorophenyl)-5-((2,6-difluorobenzyloxy)methyl)-5-methyl-4,5-dihydroisoxazole]",0

# Tested on: Soybean
# Test: Pre-emergence treatment, phytotoxicity to soybean
# Format: in vivo
# Settings: 500 g/ha, 4 weeks after spraying, scale 0 to 10 (0: no effects, 10: complete death)
# Experimental: as §1
row,SMILES,"Phytotoxicity, Soybean"
1,"CC1(COCc2c(F)cccc2F)CC(c2ccccc2Cl)=NO1 (stereo not drawn) [Compound 2, 3-(2-chlorophenyl)-5-((2,6-difluorobenzyloxy)methyl)-5-methyl-4,5-dihydroisoxazole]",0

# Tested on: Cotton
# Test: Pre-emergence treatment, phytotoxicity to cotton
# Format: in vivo
# Settings: 500 g/ha, 4 weeks after spraying, scale 0 to 10 (0: no effects, 10: complete death)
# Experimental: as §1
row,SMILES,"Phytotoxicity, Cotton"
1,"CC1(COCc2c(F)cccc2F)CC(c2ccccc2Cl)=NO1 (stereo not drawn) [Compound 2, 3-(2-chlorophenyl)-5-((2,6-difluorobenzyloxy)methyl)-5-methyl-4,5-dihydroisoxazole]",0

# Tested on: Wheat
# Test: Pre-emergence treatment, phytotoxicity to wheat
# Format: in vivo
# Settings: 500 g/ha, 4 weeks after spraying, scale 0 to 10 (0: no effects, 10: complete death)
# Experimental: as §1
row,SMILES,"Phytotoxicity, Wheat"
1,"CC1(COCc2c(F)cccc2F)CC(c2ccccc2Cl)=NO1 (stereo not drawn) [Compound 2, 3-(2-chlorophenyl)-5-((2,6-difluorobenzyloxy)methyl)-5-methyl-4,5-dihydroisoxazole]",0

# Tested on: Rice
# Test: Pre-emergence treatment, phytotoxicity to rice
# Format: in vivo
# Settings: 500 g/ha, 4 weeks after spraying, scale 0 to 10 (0: no effects, 10: complete death)
# Experimental: as §1
row,SMILES,"Phytotoxicity, Rice"
1,"CC1(COCc2c(F)cccc2F)CC(c2ccccc2Cl)=NO1 (stereo not drawn) [Compound 2, 3-(2-chlorophenyl)-5-((2,6-difluorobenzyloxy)methyl)-5-methyl-4,5-dihydroisoxazole]",0

# Tested on: Echinochloa crusgalli
# Test: Pre-emergence treatment, herbicidal efficacy on barnyardgrass
# Format: in vivo
# Settings: 62.5 g/ha, 4 weeks after spraying, scale 0 to 10
# Experimental: as §1
row,SMILES,"Herbicidal efficacy, Echinochloa crusgalli"
1,"CC1(COCc2c(F)cccc2F)CC(c2ccccc2Cl)=NO1 (stereo not drawn) [Compound 2, 3-(2-chlorophenyl)-5-((2,6-difluorobenzyloxy)methyl)-5-methyl-4,5-dihydroisoxazole]",9

# Same assay, conditions: 125 g/ha, 4 weeks after spraying, scale 0 to 10
row,SMILES,"Herbicidal efficacy, Echinochloa crusgalli"
1,"CC1(COCc2c(F)cccc2F)CC(c2ccccc2Cl)=NO1 (stereo not drawn) [Compound 2, 3-(2-chlorophenyl)-5-((2,6-difluorobenzyloxy)methyl)-5-methyl-4,5-dihydroisoxazole]",10

# Same assay, conditions: 250 g/ha, 4 weeks after spraying, scale 0 to 10
row,SMILES,"Herbicidal efficacy, Echinochloa crusgalli"
1,"CC1(COCc2c(F)cccc2F)CC(c2ccccc2Cl)=NO1 (stereo not drawn) [Compound 2, 3-(2-chlorophenyl)-5-((2,6-difluorobenzyloxy)methyl)-5-methyl-4,5-dihydroisoxazole]",10

# Same assay, conditions: 500 g/ha, 4 weeks after spraying, scale 0 to 10 (0: no effects, 10: complete death)
row,SMILES,"Herbicidal efficacy, Echinochloa crusgalli"
1,"CC1(COCc2c(F)cccc2F)CC(c2ccccc2Cl)=NO1 (stereo not drawn) [Compound 2, 3-(2-chlorophenyl)-5-((2,6-difluorobenzyloxy)methyl)-5-methyl-4,5-dihydroisoxazole]",10

# Tested on: Digitaria sanguinalis
# Test: Pre-emergence treatment, herbicidal efficacy on large crabgrass
# Format: in vivo
# Settings: 62.5 g/ha, 4 weeks after spraying, scale 0 to 10
# Experimental: as §1
row,SMILES,"Herbicidal efficacy, Digitaria sanguinalis"
1,"CC1(COCc2c(F)cccc2F)CC(c2ccccc2Cl)=NO1 (stereo not drawn) [Compound 2, 3-(2-chlorophenyl)-5-((2,6-difluorobenzyloxy)methyl)-5-methyl-4,5-dihydroisoxazole]",9

# Same assay, conditions: 125 g/ha, 4 weeks after spraying, scale 0 to 10
row,SMILES,"Herbicidal efficacy, Digitaria sanguinalis"
1,"CC1(COCc2c(F)cccc2F)CC(c2ccccc2Cl)=NO1 (stereo not drawn) [Compound 2, 3-(2-chlorophenyl)-5-((2,6-difluorobenzyloxy)methyl)-5-methyl-4,5-dihydroisoxazole]",10

# Same assay, conditions: 250 g/ha, 4 weeks after spraying, scale 0 to 10
row,SMILES,"Herbicidal efficacy, Digitaria sanguinalis"
1,"CC1(COCc2c(F)cccc2F)CC(c2ccccc2Cl)=NO1 (stereo not drawn) [Compound 2, 3-(2-chlorophenyl)-5-((2,6-difluorobenzyloxy)methyl)-5-methyl-4,5-dihydroisoxazole]",10

# Same assay, conditions: 500 g/ha, 4 weeks after spraying, scale 0 to 10
row,SMILES,"Herbicidal efficacy, Digitaria sanguinalis"
1,"CC1(COCc2c(F)cccc2F)CC(c2ccccc2Cl)=NO1 (stereo not drawn) [Compound 2, 3-(2-chlorophenyl)-5-((2,6-difluorobenzyloxy)methyl)-5-methyl-4,5-dihydroisoxazole]",10

# Tested on: Poa annua
# Test: Pre-emergence treatment, herbicidal efficacy on annual bluegrass
# Format: in vivo
# Settings: 62.5 g/ha, 4 weeks after spraying, scale 0 to 10
# Experimental: as §1
row,SMILES,"Herbicidal efficacy, Poa annua"
1,"CC1(COCc2c(F)cccc2F)CC(c2ccccc2Cl)=NO1 (stereo not drawn) [Compound 2, 3-(2-chlorophenyl)-5-((2,6-difluorobenzyloxy)methyl)-5-methyl-4,5-dihydroisoxazole]",8

# Same assay, conditions: 125 g/ha, 4 weeks after spraying, scale 0 to 10
row,SMILES,"Herbicidal efficacy, Poa annua"
1,"CC1(COCc2c(F)cccc2F)CC(c2ccccc2Cl)=NO1 (stereo not drawn) [Compound 2, 3-(2-chlorophenyl)-5-((2,6-difluorobenzyloxy)methyl)-5-methyl-4,5-dihydroisoxazole]",9

# Same assay, conditions: 250 g/ha, 4 weeks after spraying, scale 0 to 10
row,SMILES,"Herbicidal efficacy, Poa annua"
1,"CC1(COCc2c(F)cccc2F)CC(c2ccccc2Cl)=NO1 (stereo not drawn) [Compound 2, 3-(2-chlorophenyl)-5-((2,6-difluorobenzyloxy)methyl)-5-methyl-4,5-dihydroisoxazole]",10

# Same assay, conditions: 500 g/ha, 4 weeks after spraying, scale 0 to 10
row,SMILES,"Herbicidal efficacy, Poa annua"
1,"CC1(COCc2c(F)cccc2F)CC(c2ccccc2Cl)=NO1 (stereo not drawn) [Compound 2, 3-(2-chlorophenyl)-5-((2,6-difluorobenzyloxy)methyl)-5-methyl-4,5-dihydroisoxazole]",10

# Tested on: Alopecurus myosuroides
# Test: Pre-emergence treatment, herbicidal efficacy on blackgrass
# Format: in vivo
# Settings: 62.5 g/ha, 4 weeks after spraying, scale 0 to 10
# Experimental: as §1
row,SMILES,"Herbicidal efficacy, Alopecurus myosuroides"
1,"CC1(COCc2c(F)cccc2F)CC(c2ccccc2Cl)=NO1 (stereo not drawn) [Compound 2, 3-(2-chlorophenyl)-5-((2,6-difluorobenzyloxy)methyl)-5-methyl-4,5-dihydroisoxazole]",2

# Same assay, conditions: 125 g/ha, 4 weeks after spraying, scale 0 to 10
row,SMILES,"Herbicidal efficacy, Alopecurus myosuroides"
1,"CC1(COCc2c(F)cccc2F)CC(c2ccccc2Cl)=NO1 (stereo not drawn) [Compound 2, 3-(2-chlorophenyl)-5-((2,6-difluorobenzyloxy)methyl)-5-methyl-4,5-dihydroisoxazole]",3

# Same assay, conditions: 250 g/ha, 4 weeks after spraying, scale 0 to 10
row,SMILES,"Herbicidal efficacy, Alopecurus myosuroides"
1,"CC1(COCc2c(F)cccc2F)CC(c2ccccc2Cl)=NO1 (stereo not drawn) [Compound 2, 3-(2-chlorophenyl)-5-((2,6-difluorobenzyloxy)methyl)-5-methyl-4,5-dihydroisoxazole]",6

# Same assay, conditions: 500 g/ha, 4 weeks after spraying, scale 0 to 10
row,SMILES,"Herbicidal efficacy, Alopecurus myosuroides"
1,"CC1(COCc2c(F)cccc2F)CC(c2ccccc2Cl)=NO1 (stereo not drawn) [Compound 2, 3-(2-chlorophenyl)-5-((2,6-difluorobenzyloxy)methyl)-5-methyl-4,5-dihydroisoxazole]",10
